{"source": "patent US11453664B2", "about": "“Thymoquinone/harmaline and related reaction products” (Ankh Life Sciences Limited, priority 2018, dated 2022)", "key": {"MIN-6 cell line [1]": {"system": "MIN-6 cell line", "test": "Glucose stimulated insulin secretion assay, Example 5", "assay_type": "cell-based, mouse", "details": "MIN-6, glucose 2, 10 and 20 mM, 1 hour", "description": "In this test, a glucose stimulated insulin secretion assay was performed using the MIN-6 cell line and compounds C1 and C2 of Example 4. The test details and assay conditions are set forth below.\n(§1) The cells were washed with KRB containing 0.1% BSA and starved for 1 hour in 2 mM glucose-KRB/BSA at 37° C. in 5% CO2. Following starvation, the cells were treated with or without the compounds at varying glucose concentrations of 2 mM, 10, mM, and 20 mM in KRB/BSA for 1 hour at 37° C. in 5% CO2. The amount of secreted mouse insulin was measured in the KRB/BSA incubation buffer using the mouse insulin ELISA kit from Mercer EXPert Assays. The cells were then lysed for protein quantification. The data presented in FIGS. 5-6 illustrate the secreted insulin test results for glucose and diazoxide, while FIGS. 7-9 (compound C1) and 10-12 (compound C2) illustrate the secreted insulin test results using C1 and C2. The data presented in FIGS. 7-12 are presented as the fold changes in the secreted insulin per milligram protein per hour, compared to the cell control."}, "[2]": {"test": "Subsequent investigations of activity of the components of TQ 725", "details": "context: diabetes; no method given"}, "MIN-6 cell line [3]": {"system": "MIN-6 cell line", "test": "Glucose stimulated insulin secretion assay, Example 7", "assay_type": "cell-based, mouse", "details": "2 hours", "description": "In this test, another glucose stimulated insulin secretion assay was performed using two test compounds, namely C1 (MW about 378) and C3 (MW about 540). The MIN-6 cell line was used and the test details and assay conditions are set forth below.\nThe cells were revived and maintained in T-flasks. Upon reaching the required confluency, the cells were seeded in 96-well plates. The seeded cells were serum-starved in the presence of glucose for 30 minutes at 37° C. in 5% CO2. Following starvation, the cells were treated with or without the compounds at the varying glucose concentrations in KRB for 2 hours at 37° C. in 5% CO2. The cell supernatants were collected and tested for insulin secretion using the mouse insulin ELISA kit from Mercer EXPert Assays."}, "MIN-6 cell line [4]": {"system": "MIN-6 cell line", "test": "Glucose stimulated insulin secretion assay, Example 6", "assay_type": "cell-based, mouse", "details": "MIN-6, 100 nM, 10 mM of glucose, 1 hour", "description": "In this test, a glucose stimulated insulin secretion assay was performed using the MIN-6 cell line and a compound mixture of compounds VIIID and VIIIF (MW about 540), referred to as C3. The test details and assay conditions are set forth below.\nas §1, with “data is” for “data”, “13 (gliclazide)” for “5-6 illustrate the secreted insulin test results for glucose”, “14-16 (C3)” for “diazoxide, while FIGS. 7-9 (compound C1) and 10-12 (compound C2) illustrate the secreted insulin test results using C1 and C2. The data presented in FIGS. 7-12 are presented”, “change” for “changes”"}, "[5]": {"system": "NOD mouse model of diabetes", "test": "NOD mouse model of diabetes, TQ 725 as single agent", "assay_type": "in vivo, mouse (NOD/ShiLtJ)", "description": "This test was designed to evaluate the in vivo activity of the TQ-harmaline reaction product (referred to as “TQ 725”), which was a mixture of compounds I-IV and VI (MW about 378), V and VII (MW about 360), and VIIID and VIIIF (MW about 540), as single agent in the NOD mouse model of diabetes. […] The female NOD mice show evidence of diabetes onset by age week 12 and 70% presenting with diabetes (non-fasting plasma glucose higher than 250 mg/dl) by age week 20. The significant endpoint is assessment of weekly blood glucose levels.\nThe pancreatic tissues from the test mice were assayed by conventional insulin staining according to the following ratings: 0—no staining on islet cells; 1—of islets with positive stains, stain cells are minimal in number; 2—of islets with positive stain, stain cells are less than 50% of the cells; 3—of the islets with positive stains, stain cells are greater than 50% of the cells.\nFIGS. 1 and 2 illustrate the body weight and blood glucose level results collected during the test. In each of these Figures, graph A refers to Group 1, the vehicle control (PO) QD to end; graph B refers to Group 2, 725.001 100 mg/kg days 1-27, followed by 400 mg/kg days 28 to end (PO); graph C refers to Group 3, 725.001 200 mg/kg (PO) QD to end; and graph D refers to Group 4, metformin 600 mg/kg (in H2O) Ad libitum days 1-8, followed by 600 mg/kg (PO) QD days 9 to end."}}}
{"smiles": "CC1=NS(=O)(=O)c2cc(Cl)ccc2N1", "note": "[Diazoxide]", "values": [{"measurement": "effect on insulin secretion", "setting": "MIN-6 cell line [1]", "value": "significant inhibition of insulin secretion"}]}
{"smiles": "COc1ccc2c(c1)=NC1C(/C=C3/C=C(C(C)C)C(=O)C=C3C)=NCCC=21", "note": "(centres unmarked) [VII]", "values": [{"measurement": "relative activity among the components of TQ 725", "setting": "[2]", "value": "most active"}]}
{"smiles": "Cc1ccc(S(=O)(=O)NC(=O)NN2CC3CCCC3C2)cc1", "note": "(centres unmarked) [Gliclazide]", "values": [{"measurement": "insulin secretion at the lower glucose concentration", "setting": "MIN-6 cell line [3]; MIN-6, glucose 2 mM, 100 μM", "value": "enhanced insulin secretion was observed"}, {"measurement": "insulin secretion at the higher glucose concentration", "setting": "MIN-6 cell line [3]; MIN-6, glucose 25 mM", "value": "saturation effect"}, {"measurement": "effect on insulin secretion", "setting": "MIN-6 cell line [4]", "value": "enhanced insulin secretion"}]}
{"smiles": "CN(C)C(=N)N=C(N)N", "note": "[Metformin]", "values": [{"measurement": "body weight", "setting": "[5]; Group 4: 600 mg/kg, data not deemed reliable", "value": "trended downwardly"}, {"measurement": "insulin staining of pancreatic tissues, mean value", "setting": "[5]; Group 4: ad libitum days 1-8, 600 mg/kg PO days 9-56, rating scale 0-3", "value": 0.50}]}
{"smiles": "COc1ccc2c(c1)=NC1C(CC3(O)C=C(C(C)C)C(=O)C=C3C)=NCCC=21", "note": "(centres unmarked) [VI]", "values": [{"measurement": "relative activity among the components of TQ 725", "setting": "[2]", "value": "most active"}]}
